Reference: patent US7112715B2, “Transgenic mouse for targeted recombination mediated by modified Cre-ER” (Gie-Cerbm, Centre Europeen de Recherche en Biologie et en …, priority 2000, dated 2006)

Assays:
melanocytic growths = assay: Melanocytic growths and lymph node melanocytes after DMBA or DMBA/TPA treatment of CT and RXRα^ep−/− mice; assay type: in vivo, mouse; conditions: for mice with enlarged and pigmented subiliac lymph nodes: 30 weeks
Procedure: A. Dorsal view of CT (K14-Cre-ER^T2(0/0)/RXRα^L2/L2) (left) and RXRα^ep−/− (right) mice 25 weeks after DMBA treatment. Arrows point to some or the melanocytic growths. B. Number of melanocytic growths in skin of CT and RXRα^ep−/− mice 30 weeks after DMBA and DMBA/TPA treatments, as indicated. Values are expressed as mean +/−SEM (n=6). *, p<0.05; ***, p<0.001, C. Size distribution of melanocytic growths in CT and RXRα^ep−/− mice. The number of 1–2 and 2–4 mm melanocytic growths was determined on CT and RXRα^ep−/− mice, 30 weeks after DMBA and DMBA/TPA treatments, as indicated. Values are expressed as mean +/−SEM (m=6).
Photograph of subiliac lymph nodes from CT (a and e) and RXRα^ep−/− (b and f) mice taken 30 weeks after DMBA and DMBA/TPA treatment, respectively. Hematoxylin and eosin stained 5 μm paraffin sections of CT (c and g) and RXRα^ep−/− (d and h) mice after DMBA and DMBA/TPA treatments, respectively. Scale bar, 33 μm.
Subiliac lymph nodes were isolated 30 weeks after DMBA application, fixed in 4% paraformaldehyde, photographed and embedded in paraffin. 5 μm-thick sections were stained with hematoxylin and eosin. • 1.8—Assay of blood parameters
(§1) A single dose of 7,12-dimethylbenz(a)anthracene (DMBA) (5 μg in 100 μl acetone) was applied on the dorsal skin of 10–14 week old mice, 7 weeks before or 16 days after the first Tam or oil (vehicle) treatments. 12-0-tetradecanoylphorbol-13-acetate (TPA) (5 μg in 200 μl acetone) was applied twice a week for 25 to 30 weeks, starting one week after DMBA application. CT and RXRα^ep−/− mice were shaved 7 and 2 days before DMBA treatment, and every second week for 30 and 15 weeks, respectively. 8 weeks after DMBA treatment, all-trans retinoic acid (t-RA, 20 nmoles in ethanol) or vehicle was topically applied 15 min before each TPA application. • 1.10—Determination of the number and size of the tumors
(§2) The length of the papillomas and the diameter of the melanocytic were measured with a Vernier calliper on isofluorane anesthesised mice.

[1] = system: skin papilloma formation induced by DMBA/TPA; assay: Antitumoral effect of topical retinoic acid on DMBA/TPA-induced skin papilloma; assay type: in vivo, mouse; conditions: for average number of tumors: ~25 weeks of DMBA/TPA treatment
Procedure: as §1, §2

Cre-ER^T2 = Cre-ER^T2 (Homo sapiens, UniProt P03372, G400V/L544A/M543A); conditions: K5-Cre-ER^T2 mice; OHT dose 0.001 mg; day 2
Sequence of Cre-ER^T2 (P03372 with tags, fused parts or gaps G400V/M543A/L544A): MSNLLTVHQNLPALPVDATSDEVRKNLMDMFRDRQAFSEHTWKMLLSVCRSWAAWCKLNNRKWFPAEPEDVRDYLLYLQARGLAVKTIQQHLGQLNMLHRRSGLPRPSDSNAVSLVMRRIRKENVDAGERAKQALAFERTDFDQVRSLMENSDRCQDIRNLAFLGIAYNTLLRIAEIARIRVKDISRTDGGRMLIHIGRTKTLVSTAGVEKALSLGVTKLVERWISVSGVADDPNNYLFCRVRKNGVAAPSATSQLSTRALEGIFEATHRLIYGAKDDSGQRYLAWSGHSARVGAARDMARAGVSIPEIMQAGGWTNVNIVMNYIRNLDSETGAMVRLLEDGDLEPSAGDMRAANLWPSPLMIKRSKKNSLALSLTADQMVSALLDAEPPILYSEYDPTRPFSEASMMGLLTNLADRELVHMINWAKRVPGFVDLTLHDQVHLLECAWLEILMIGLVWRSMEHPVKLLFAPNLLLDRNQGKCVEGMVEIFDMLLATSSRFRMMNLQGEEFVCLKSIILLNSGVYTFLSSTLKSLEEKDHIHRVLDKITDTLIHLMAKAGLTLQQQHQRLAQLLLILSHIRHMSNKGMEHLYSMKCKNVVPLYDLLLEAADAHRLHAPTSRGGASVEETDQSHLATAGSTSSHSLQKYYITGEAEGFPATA
Procedure: (§3) Immunohistochemistry of the chimeric Cre recombinase on sections of the epidermis of K5-Cre-ER^T2 and K5-Cre-ER^T3 mice treated either with 0.1 mg, 0.01 mg or 0.001 mg of OHT and analyzed two days (D 2) after the start of the treatment (D 0). The red color corresponds to labeling with the anti-Cre antibody directed against the Cre protein, and the Cyan color corresponds to DAPI.
(§4) After fixing in 2% paraformaldehyde, frozen sections of 10 μm are blocked in 5% normal goat serum (Vector Laboratories) incubated with the rabbit polyclonal antibody anti-MK6 (Babco). After washing in PBS/0.1% Tween 20, the sections are incubated with the donkey anti-rabbit IgG antibody conjugated with CY3 (Jackson Immuno Research) and then mounted in the Vectashield medium (Vector Laboratories) containing DAPI (4′,6-diamidino-2-phenylindole dihydrochloride; Boehringer Mannheim) (Brocard et al., 1997). The anti-Cre antibodies are used according to Indra et al. (1999). • 1.6—Immunohistochemistry
(§5) The sensitivity to OHT was tested in a first instance by analyzing the intracellular location of the chimeric proteins.

Cre-ER^T3 [2] = target: T1, Cre-ER^T3 (Homo sapiens, UniProt P03372, L544A/M543A); conditions: K5-Cre-ER^T3 mice; OHT dose 0.001 mg; day 2
T1 sequence (P03372 with tags, fused parts or gaps M543A/L544A): as the sequence (P03372 with tags, fused parts or gaps G400V/M543A/L544A) above, with V465G counted along it
Procedure: as §3, §4, §5

Cre-ER^T3 [3] = target: T1, Cre-ER^T3; conditions: 1 and 0.1 mg of OHT; day 15
Procedure: Activity of β-galactosidase on sections of the epidermis of the tail of K5-Cre-ER^T2(tg/0)/Rosa^f1/1 and K5-Cre-ER^T3(tg/0)/Rosa^f1/+ mice treated with 1 mg, 0.1 mg, 0.01 mg and 0.001 mg of QHT. The analyses are carried out on the fifteenth day after the start of the treatment (D0).
as §5

mouse ER LBD (mER) G525R = mouse ER LBD (mER) G525R (Mus musculus, UniProt P19785, G525R); conditions: cited from earlier work
Sequence of mouse ER LBD (mER) G525R (P19785 whole entry G525R, the tested form may be a part): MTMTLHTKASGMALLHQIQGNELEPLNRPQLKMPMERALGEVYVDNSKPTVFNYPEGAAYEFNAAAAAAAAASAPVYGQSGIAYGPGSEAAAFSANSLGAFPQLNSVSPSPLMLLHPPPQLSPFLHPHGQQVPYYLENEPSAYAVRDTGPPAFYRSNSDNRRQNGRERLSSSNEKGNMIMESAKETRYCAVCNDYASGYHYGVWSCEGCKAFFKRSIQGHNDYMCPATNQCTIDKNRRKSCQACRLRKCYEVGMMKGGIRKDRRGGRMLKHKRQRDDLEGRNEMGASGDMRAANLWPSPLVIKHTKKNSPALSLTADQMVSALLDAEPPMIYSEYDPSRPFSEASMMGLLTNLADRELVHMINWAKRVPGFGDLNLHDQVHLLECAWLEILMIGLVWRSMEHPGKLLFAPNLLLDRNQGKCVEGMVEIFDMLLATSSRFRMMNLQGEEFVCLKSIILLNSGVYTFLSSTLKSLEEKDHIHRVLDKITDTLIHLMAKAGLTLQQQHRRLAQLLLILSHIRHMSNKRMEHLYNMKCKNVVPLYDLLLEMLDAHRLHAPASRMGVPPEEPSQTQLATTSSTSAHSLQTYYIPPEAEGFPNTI

[4] = system: fusion protein between the recombinase Cre and the ligand-binding domain of the mutated human nuclear estrogen receptor; conditions: varies between a few percents and 80%; five infections of 8 mg; cited from earlier work

Cc1c2ccccc2c(C)c2c1ccc1ccccc12 [DMBA, 7,12-dimethylbenz(a)anthracene]
induction of melanocytic growths, RXRα^ep−/− versus CT mice (melanocytic growths; DMBA alone): ~7 fold | mice with enlarged and pigmented subiliac lymph nodes (melanocytic growths; DMBA, CT mice): 0/4 | mice with enlarged and pigmented subiliac lymph nodes (melanocytic growths; DMBA, RXRα^ep−/− mice): two out of 4 | melanosomes per melanocyte, RXRα^ep−/− versus CT melanocytes (melanocytic growths; DMBA, electron microscopy): ~10 fold

CC1=C(/C=C/C(C)=C/C=C/C(C)=C/C(=O)O)C(C)(C)CCC1 [t-RA, all-trans retinoic acid]
tumor formation ([1]; CT mice): efficiently inhibited | size of the papilloma after treatment ([1]; CT mice, 25 weeks of RA treatment, from 2–3 mm, in 3 out of 8 papillomas of 6 mice): 1 mm | size of the tumors ([1]; RA treated CT mice): below 2 mm | average number of tumors ([1]; RA treated CT mice): 1 | tumors larger than 12 mm ([1]; RA treated RXRα^ep−/− mice): ~11% | average number of tumors ([1]; RA treated RXRα^ep−/− mice): ~17 | change in size of the papilloma ([1]; RXRα^ep−/− mice): no decrease in size | number and size of melanocytic growths, RXRα^ep−/− compared to CT mice ([1]; after RA treatment): increased | skin papilloma formation induced by DMBA/TPA ([1]; topical, female and male wild-type 129Sv): efficiently blocked

4-hydroxytamoxifen [OHT]
nuclei labeled with anti-Cre antibodies in the skin (Cre-ER^T2): no positive nucleus | nuclei strongly labeled with anti-Cre antibodies in the basal layer of the epidermis (Cre-ER^T3 [2]): about ⅓ | excision levels, K5-Cre-ER^T3 versus K5-Cre-ER^T2 line (Cre-ER^T3 [3]): similar | effect of the G525R mutation on binding (mouse ER LBD (mER) G525R): without adversely affecting the binding | efficiency of site-specific recombination in cells expressing the fusion protein [4]: ≤ 80%
